Assay results reported in patent publication US20040006236A1, “Diaminopropionic acid derivatives” (priority 1999, published 2004).

Legend:
[1] = system: T lymphocyte proliferation (C57BI/6 spleen cells with irradiated BALB/c spleen cells); assay: Mixed lymphocyte reaction (MLR), one-way; format: cell-based, mice; details: Mus musculus, T-lymphocyte; read-out: MLR IC50
Method in brief: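 Irradiated BALB/c spleen cells mixed with C57BI/6 spleen cells in RPMI1640/10% heat-inactivated FBS/2-mercaptoethanol, with serial antagonist dilutions; 3 days at 5% CO2. Tritiated thymidine (0.5 μCi/well) added on day 3; incorporation counted by liquid scintillation after a further 6 h.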

[2] = biological target: T1, ICAM-1 binding to immobilized Mac-1 (Homo sapiens, UniProt P05107+P11215); assay: Mac-1/ICAM-1 screening assay (solid-phase ELISA); details: read-out: Mac-1/ICAM-1 Protein-Protein Assay IC50
T1 construct: made in house; host or cells: transfected 293 cells (Mac-1)
Method in brief: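 Competitive solid-phase ELISA: membrane Mac-1 from transfected 293 cells coated at 3 μg/mL in 20 mM Hepes pH 7.2/0.14 M NaCl/1 mM MnCl2; compounds (0.12 nM-20 μM, 1:4 series) plus 5dICAM-Ig (40 μg/mL, added) 2 h at 37° C. Bound ICAM-Ig detected with HRP anti-human IgG Fc, TMB, A450; IC50 reported.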

T1 sequence (P05107 23-769, other chains not shown): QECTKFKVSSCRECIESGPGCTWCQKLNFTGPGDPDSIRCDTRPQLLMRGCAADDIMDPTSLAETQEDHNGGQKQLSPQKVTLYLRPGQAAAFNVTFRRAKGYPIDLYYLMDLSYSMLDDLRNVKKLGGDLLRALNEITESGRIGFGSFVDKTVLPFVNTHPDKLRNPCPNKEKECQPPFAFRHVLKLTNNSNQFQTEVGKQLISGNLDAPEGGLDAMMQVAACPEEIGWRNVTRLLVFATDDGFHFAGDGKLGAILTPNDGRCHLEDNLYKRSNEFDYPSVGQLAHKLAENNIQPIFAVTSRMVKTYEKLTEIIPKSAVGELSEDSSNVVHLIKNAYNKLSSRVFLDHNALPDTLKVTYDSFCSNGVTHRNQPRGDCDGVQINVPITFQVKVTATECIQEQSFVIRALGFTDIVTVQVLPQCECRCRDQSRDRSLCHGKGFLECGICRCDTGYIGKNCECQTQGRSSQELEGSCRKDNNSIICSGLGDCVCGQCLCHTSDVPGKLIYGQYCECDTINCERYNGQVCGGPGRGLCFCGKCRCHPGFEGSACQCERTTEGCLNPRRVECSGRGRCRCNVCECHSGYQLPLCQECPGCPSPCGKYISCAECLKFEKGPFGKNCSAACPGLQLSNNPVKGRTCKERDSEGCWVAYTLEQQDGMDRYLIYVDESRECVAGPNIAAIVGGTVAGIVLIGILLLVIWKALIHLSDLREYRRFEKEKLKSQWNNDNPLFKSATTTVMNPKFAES

O=C(CC1CCCC1)NC[C@H](NC(=O)c1ccc(C(=O)NCc2cccc(O)c2)cc1Cl)C(=O)O [Example 77]
IC50 [1]: 700 nM
IC50 [2]: 25 nM
